Earlier results in patent publication US8604084B2, “Method” (GlaxoSmithKline, LLC, priority 2008, dated 2013).

In the case of CC(=O)Nc1ccc(O)cc1 [Paracetamol], the mean plasma half-life (adults) is listed as 2.4 h, the “plasma half-life, range” value (adults) is listed as 1.5 to 3.0 h and the plasma protein binding (in vivo) is listed as “not bound to plasma protein to any extent”. For the same compound, the absolute oral bioavailability (independent of dose in the range of 5-20 mg/kg) was “about 80%” and the volume of distribution (per body weight) was “about 0.9 litre/kilogram”.
